Experimental data as given in patent US10780094B2, “Use of carbonic anhydrase inhibitors for treatment of neurological and psychiatric disorders” (New York University, priority 2016, dated 2020).

What was measured:
[1] = test system: SH-SY5Y cells; experiment: Cell Death ELISAplus, Aβ-induced apoptosis (fragmented nucleosomes); format: cell-based, human; conditions: for apoptosis in response to Aβ: Example 2/3, Aβ42 challenge, FIG. 17A, 21
Method: The extent of apoptosis caused by Aβ in the presence or absence of MTZ was assessed by quantitation of nucleosome formation using Cell Death ELISA^plus (Roche Applied Science, Indianapolis, Ind.). Briefly, after incubation with the peptides, plates were centrifuged in a Beckman J-6B centrifuge (10 min; 1,000 rpm), cells lysed, and DNA-histone complexes (nucleosomes) quantitated by Cell Death ELISA, as previously described (Fossati et al., 2010).
20.000 cells per well were plated on 24-wells plates. The day after, cells were treated with peptides and/or drugs, following the experimental conditions.
20,000 cells per well were plated on 24-wells plates. The day after, cells were treated with peptides and/or drugs, following the experimental conditions.

[2] = test system: mitochondria isolated from SH-SY5Y neuronal cells; experiment: Mitochondrial H2O2 production (Amplex Red) after Aβ challenge; format: cell-based, human; conditions: for Aβ-induced H2O2 production: Example 2, both drugs at the proposed concentrations
Method: Production of H2O2 from isolated mitochondria was measured using Amplex Red Hydrogen Peroxide/Peroxidase Assay (Life Technologies). Cells were treated with Aβ peptides, in the presence or absence of MTZ. After 16 hours of treatment, the mitochondrial fraction was separated from nuclear and cytoplasmic fractions as previously described (Fossati et al., 2013). Protein concentration in the mitochondrial fraction was measured by BCA assay (Thermo Scientific, Rockford, Ill.), in order to include the same amount of mitochondria in each sample. Functional mitochondrial fractions were distributed in a 96 well plate with Reaction Buffer and Amplex Red solution following the manufacturer's specifications. The plate was incubated in the dark at room temperature for 30 minutes before colorimetric evaluation of the Amplex Red reaction at 560 nm.
Cells were plated on 6-wells plates and treated with the peptides and/or drugs for the experimental times. Plates were centrifuged for 10 min at 1.000 RPM and washed twice with PBS 1×. After that, 500 μL of homogenization buffer (75 mM sucrose, 225 mM mannitol, 5 mM Tris-HCl pH=7.4, 1 mM PMSF and protease inhibitor cocktail) was added. Cells were scraped in this buffer, collected in glass tubes and grinded exactly 80 times with a pellet pestle, keeping everything always on ice. Cells were then centrifuged at 2.800 RPM for 5 min at 4° C. The supernatant was collected and centrifuged again at 2.800 RPM for 5 min at 4° C. The supernatant was again collected and centrifuged at 10.500 RPM for another 5 min at 4° C. After this, the supernatant was discarded and the pellet was re-suspended in 100 μL of homogenization buffer. The samples were centrifuged again at 10.500 RPM for 10 min at 4° C., the supernatant was discarded and the pellets (mitochondrial fractions) were re-suspended on 50 μL of homogenization buffer. A protein concentration assay on mitochondrial protein was performed, using the Pierce BCA Protein Assay Kit (ThermoFisher, Waltham, Mass., US) and following the instructions provided by the manufacturer. After that, mitochondrial fractions containing equal amounts of mitochondrial proteins were placed on 96-wells microplate absorbance microtiter (ThermoFisher, Waltham, Mass., US) and the AmplexRed assay was ran, following the instructions provided by the manufacturer. Absorbance was measured by using a FlexStation (Molecular Devices, Sunnyvalem Calif., US).

[3] = test system: TgSwDI mice; experiment: Brain immunostaining and Thioflavin S staining in a model of vascular and parenchymal amyloidosis; format: in vivo, mouse; conditions: for Aβ and GFAP staining, dentate gyrus (hippocampus) / GFAP and Aβ staining and their colocalization, cortex / co-localization of Aβ staining with glial cells, dentate gyrus / gliosis and amyloidosis, thalamic region: 16 month-old mice treated for 8 months; for amyloid deposits in the cortex and thalamic region (Thioflavin S) / hippocampal deposition of Amyloid beta (Thioflavin S) / amyloid load in the brain (Thioflavin S): 16 months old, diet 8 months; for amyloid load in the brain (Thioflavin S): 15-20 mg/kg/day
Method: The animals were sacrificed by trans-cardiac perfusion (medium flow pump, Fisher Scientific 13-876-2, 10 ml/min flow rate) with PBS for 2 minutes followed by 4% paraphormaldehyde for 5 minutes. Brains were then removed from the skull and postfixed in 4% paraphormaldehyde for 2 h at 4° C. […] Brains were then washed in PBS, assembled in a plastic mold with Tissue-Tek O.C.T. compound (Fisher Scientific), and frozen with a mixture of liquid nitrogen and isopenthanol. Serial cryostat sections of 8 μm thickness were collected on positively charged microscope slides (Fisher Scientific) and stored at −80° C. until further immunohistochemical analysis.
For immunohistochemical staining, slices were warmed to RT for 5′ prior to use, rinsed in PBS and blocked with Mouse on Mouse (MOM) blocking reagent (2 drops in 2.5 ml of PBS, Vector Laboratories, Burlingame, Calif.) for 20 minutes. Incubation with the rabbit monoclonal antibody against active caspase-3 (Cell Signaling Technology) was performed overnight at 4° C. in PBS containing 0.1% triton X-100 and 5 mg/ml BSA. The day after, the sections were washed three times with PBS and incubated in Alexa Fluor 488- or 633-conjugated anti-rabbit IgG (Life Technologies; 1:200 in PBST with 5 mg/ml BSA; 1 h at RT), followed by primary anti-Aβ 6E10 (1:200 in PBS+MOM for 2 hours at RT), and by secondary Alexa Fluor 568 anti-mouse IgG. Finally, the slices were washed and the DNA counterstained with TO-PRO (Life Technologies) 1:1000 for 10 min, or with NeuN green neuronal staining (1:100 in PBS for 1 hour, Millipore, Temecula, Calif.). For staining of active microglial cells, tissue sections were incubated with anti IBA1 goat antibody (Abcam, Cambridge, Mass.) 1:200 in PBS containing 0.1% Triton and 5 mg/ml BSA for 1 hour, followed by Alexa Fluor 488 anti-goat IgG (1 hour). For astrocytes, brain slices were stained with GFAP antibody (Fisher Scientific 1:200).
Total fibrillar Aβ burden (parenchymal and vascular) and CAA burden (Aβ burden in the vasculature) were evaluated separately in sections stained with Thioflavin-S, using methods described previously (Scholtzova et al., J Neurosci 2009, 29: 1846-1854).
After washing, slides were mounted with an aqueous mounting medium (Vector Laboratories). Images were acquired in a Zeiss LSM 510 confocal microscope using 40× or 100× oil lens and processed using Image J and Adobe Photoshop. Images were acquired maintaining constant exposure for all samples across single experiments. For quantifications, stained brain slices corresponding to the injection site area of 3 or more animals were quantified with Image J. The total area of NeuN, caspase 3, Aβ and IBA1 positive cells was quantified and compared between different treatments.

[4] = drugs in diet from 5-6 months of age, sacrificed at 9 months

For CC(=O)Nc1nnc(S(N)(=O)=O)s1 [ATZ, acetazolamide], the “apoptosis in response to Aβ” value [1] was “prevented”, the “Aβ-induced H2O2 production” value [2] was “completely reverted” and the “Aβ and GFAP staining, dentate gyrus (hippocampus)” value [3] was “both Aβ and GFAP were reduced”. The “GFAP and Aβ staining and their colocalization, cortex” value [3] was “significant reduction”, the “co-localization of Aβ staining with glial cells, dentate gyrus” value [3] was “not co-localized within glial cells” and the “gliosis and amyloidosis, thalamic region” value [3] was “decreased gliosis (green) and amyloidosis (red)”. The “amyloid deposits in the cortex and thalamic region (Thioflavin S)” value [3] was “reduced deposition”, the “hippocampal deposition of Amyloid beta (Thioflavin S)” value [3] was “decrease” and the “amyloid load in the brain (Thioflavin S)” value [3] was “reduced”. For the same compound, the “increase in caspase 3 activation induced by Aβ, hippocampus” value [3, 4] was “inhibited”.

For CC(=O)/N=c1/sc(S(N)(=O)=O)nn1C [MTZ, methazolamide], the “DNA fragmentation after Aβ challenge” value ([1]; 100 μM MTZ, Aβ42 10 μM or Aβ40-Q22 50 μM, 1 day) was “significantly effective at reducing DNA fragmentation”, the “Aβ-mediated increase in fragmented nucleosomes” value ([1]; 300 μM MTZ, Aβ42 10 μM or Aβ40-Q22 50 μM, 1 day) was “completely prevented” and the “apoptosis in response to Aβ” value [1] was “prevented”. The “Aβ-induced increase in H2O2 production by isolated mitochondria” value ([2]; Example 1, Aβ with MTZ) was “completely reverted”, the “Aβ-induced H2O2 production” value [2] was “completely reverted” and the “H2O2 production, drug alone” value ([2]; MTZ alone, untreated cells) was “did not have any effect”. The “Aβ and GFAP staining, dentate gyrus (hippocampus)” value [3] was “both Aβ and GFAP were reduced”, the “GFAP and Aβ staining and their colocalization, cortex” value [3] was “significant reduction” and the “co-localization of Aβ staining with glial cells, dentate gyrus” value [3] was “not co-localized within glial cells”. The “gliosis and amyloidosis, thalamic region” value [3] was “decreased gliosis (green) and amyloidosis (red)”, the “amyloid deposits in the cortex and thalamic region (Thioflavin S)” value [3] was “reduced deposition” and the “hippocampal deposition of Amyloid beta (Thioflavin S)” value [3] was “decrease”. The “amyloid load in the brain (Thioflavin S)” value [3] was “reduced”, the “Aβ deposition, hippocampus” value [3, 4] was “reduction in Aβ deposition” and the “increase in caspase 3 activation induced by Aβ, hippocampus” value [3, 4] was “inhibited”.
